Assay results as given in patent US20080280837A1, “Biologically Active Compounds with Anti-Angiogenic Properties” (priority 2004, published 2008).

Tests used:
[1] = system: PC-3 human prostate tumour xenograft; assay: Nude mouse model of human PC-3 prostate tumours; assay type: in vivo, nude mice; conditions: PC-3 xenograft
Protocol: Initial Maximum Tolerated Dose (MTD) studies were done in male nude mice to determine the appropriate intravenous dosing regimen for the PC-3 human prostate tumour model. A range of doses between 0 and 50 mg/Kg for 28 days (qdx28) were tested. Mice were randomized into groups with 5 animals per group including vehicle control. Animals were weighed twice weekly starting on day one and observed daily for adverse reactions or toxicity due to the agent. MTD studies determined the selection of 20 mg/kg and 35 mg/kg for intravenous dosing once per day for 28 days in the PC-3 human prostate tumour xenograft model.
Male nude mice (nu/nu) between 5 and 6 weeks of age weighing approximately 25 g were implanted subcutaneously (s.c) by trocar with fragments of PC-3 human tumour carcinomas harvested from s.c growing tumours in host mice. PC-3, is a metastatic human prostate adenocarcinoma cell line originating from a person. When tumours reached approximately 36 mm^3 in size animals were pair matched into treatment and control groups with 10 mice in each group. […]
At the end of the treatment period the mice were weighed and sacrificed. Each tumour was excised and weighed and a mean actual tumour weight (mg) per group was calculated along with the mean actual volume ([…]). […] Mean tumour regression was determined using the formula [1−(mean actual tumour weightFINAL/mean tumour weightDAY 1)×100%].

[2] = system: HUVEC tube formation; assay: Matrigel tube formation assay; assay type: cell-based, human; conditions: Homo sapiens, 22 h
Protocol: HUVEC (Clonetics) were plated in 96 well plates in EGM-2 media (Clonetics) at 2.5 to 3×10^4 cells per well. Cells of less than 6 passages were used in all studies. Wells were precoated with 50 μL growth factor containing Matrigel (Becton Dickinson). HUVEC were allowed to form tubes by incubation at 37° C. in 5% CO2 for 22 hrs. In test wells compound was added in the desired concentration. Photographic images of the wells ×4 magnification were used to determine size of the tubes, length of tubes and number of junctions using image analysis software.

[3] = In vivo pharmacokinetic evaluation after i.v. and p.o. administration to rats; conditions: rat, plasma, po, 25 mg/Kg, Rat 3, PO; calculated using AUC0-480; read-out: BA (oral bioavailability)
[4] = biological target: T1, Human SST5 somatostatin receptor (SSTR5) (Homo sapiens, UniProt P35346); assay: Filter plate assay for SST5 receptor, displacement of [125I]SST-14; assay type: binding
T1 construct: expressed in transfected cells; host or cells: HEK-293 EBNA
How it was run: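 HEK-293 EBNA membranes expressing human SST5 (5.5 μg) incubated 60 min at 25 °C with 4 nM [125I]SST-14 and compound in pH 7.5 Tris/EGTA/MgCl2/sucrose buffer. Bound radioactivity collected on PEI-coated glass fiber filters and counted; triplicate 1:5 dilution series from 125 μM, non-specific binding with excess cold ligand.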

T1 sequence (P35346 whole entry): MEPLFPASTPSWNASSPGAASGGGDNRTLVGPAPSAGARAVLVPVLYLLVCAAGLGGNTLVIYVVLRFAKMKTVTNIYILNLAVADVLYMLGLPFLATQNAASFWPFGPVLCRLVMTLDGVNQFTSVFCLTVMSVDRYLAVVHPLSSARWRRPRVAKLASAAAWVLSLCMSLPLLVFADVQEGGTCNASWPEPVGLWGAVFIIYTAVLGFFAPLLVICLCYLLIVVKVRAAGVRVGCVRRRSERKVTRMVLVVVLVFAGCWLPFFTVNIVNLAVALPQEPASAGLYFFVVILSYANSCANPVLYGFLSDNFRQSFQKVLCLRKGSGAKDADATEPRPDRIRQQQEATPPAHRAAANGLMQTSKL

COC[C@H]1O[C@H](OCCc2ccccc2)[C@H](NC(=O)CCCN)[C@@H](OCc2ccc3ccccc3c2)[C@@H]1O [Compound 1]
Tumour growth inhibition (TGI) ([1]; 20 mg/kg i.v. daily): 34% | Tumour growth inhibition (TGI) ([1]; 35 mg/kg i.v. daily): 34% | EC50 [2]: 250 µM | bioavailability [3]: 4.95% | IC50 ([4]; concentration required to displace 50% of the competitive radioligand, read-out: IC50 SSTR5): 0.322 µM | selectivity SSTR5 ([4]; normalized IC50: lowest IC50 for a compound = 1): 1 | Hillslope SSTR5 ([4]; slope of binding curve): 0.71
